US10711314B2, “Methods for diagnosing IDH-mutant cell proliferation disorders” (Agios Pharmaceuticals, Inc., priority 2009, dated 2020)
pIC50, pKi: −log10 of the molar value. Values joined by “and” are separate entries in the source; they are usually repeats but may differ in a detail not shown here. Identical values can stand only once. Like-named read-outs stand apart in the source and are kept apart here.

Key:
IDH1 R132S = molecular target: T1, IDH1 R132S (Homo sapiens, UniProt O75874, R132S); test: Inhibition of oxidative decarboxylation of isocitrate to α-KG by IDH1 R132S; assay type: biochemical
T1 construct: The resultant fragments for IDH1 (full length) and IDH2 (residues 40-452) were cloned into vector pET41a; made in house; host or cells: E. coli Rosetta
T1 sequence (O75874 whole entry R132S, the tested form may be a part): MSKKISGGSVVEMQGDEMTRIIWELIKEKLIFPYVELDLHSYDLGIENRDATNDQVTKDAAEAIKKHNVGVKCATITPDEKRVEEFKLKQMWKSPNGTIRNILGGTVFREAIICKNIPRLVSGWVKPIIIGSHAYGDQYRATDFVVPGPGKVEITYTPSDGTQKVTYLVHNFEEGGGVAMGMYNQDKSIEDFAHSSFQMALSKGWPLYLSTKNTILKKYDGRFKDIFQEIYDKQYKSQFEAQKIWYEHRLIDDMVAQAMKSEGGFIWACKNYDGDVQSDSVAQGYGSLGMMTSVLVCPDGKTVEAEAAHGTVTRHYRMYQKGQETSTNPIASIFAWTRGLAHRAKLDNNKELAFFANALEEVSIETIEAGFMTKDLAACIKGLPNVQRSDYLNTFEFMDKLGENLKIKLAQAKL
Experimental: (§1) In these reactions, the substrate was varied while the cofactor was held constant at 500 uM. All reactions were performed in 150 mM NaCl, 20 mM Tris-Cl, pH 7.5, 10% glycerol, and 0.03% (w/v) BSA). Reaction progress was followed by spectroscopy at 340 nM monitoring the change in oxidation state of the cofactor. Sufficient enzyme was added to give a linear change in absorbance for 10 minutes.
(§2) A well-known regulatory mechanism for control of metabolic enzymes is feedback inhibition, in which the product of the reaction acts as a negative regulator for the generating enzyme.
(§3) Final concentrations: Tris 7.5 20 mM, NaCl 150 mM, MnCl2 2 mM, Glycerol 10%, BSA 0.03%, NADP 0.5 mM, IDH1 wt 1.5 ug/ml, IDH1R132S 30 ug/ml, IDH1R132H 60 ug/ml, DL-isocitrate (5-650 uM).

IDH1 R132H [1] = molecular target: T2, IDH1 R132H (Homo sapiens, UniProt O75874, R132H); test: Inhibition of oxidative decarboxylation of isocitrate to α-KG by IDH1 R132H; assay type: biochemical
T2 construct: The resultant fragments for IDH1 (full length) and IDH2 (residues 40-452) were cloned into vector pET41a; made in house; host or cells: E. coli
T2 sequence (O75874 whole entry R132H, the tested form may be a part): as the sequence (O75874 whole entry R132S, the tested form may be a part) above, with S132H counted along it
Experimental: as §1, §2, §3

IDH1 wild-type = molecular target: T3, IDH1 wild-type (Homo sapiens, UniProt O75874); test: Inhibition of oxidative decarboxylation of isocitrate to α-KG by IDH1 wild-type; assay type: biochemical; settings: for effect on the oxidative decarboxylation of isocitrate by wild-type ICDH1: added in a titration series
T3 construct: The resultant fragments for IDH1 (full length) and IDH2 (residues 40-452) were cloned into vector pET41a; made in house; host or cells: E. coli Rosetta
T3 sequence (O75874 whole entry, the tested form may be a part): as the sequence (O75874 whole entry R132S, the tested form may be a part) above, with S132R counted along it
Experimental: as §1, §2, §3
A reaction containing the wild-type ICDH1, NADP, and α-KG was assembled (under conditions as described above) to which was added in a titration series either (R)-2-hydroxyglutarate or the reaction product of the ICDH1 […] mutant reduction of α-KG to 2-hydroxyglutarate.

glioblastoma multiforme = glioblastoma multiforme patients; cited from earlier work
IDH1 R132H [2] = molecular target: T2, IDH1 R132H; test: High throughput screening for IDH1 R132H inhibitors (NADPH/αKG, resazurin detection); assay type: biochemical; settings: for IC50 Ratio (40/4): ratio of ICDH IC50 at 40 uM vs 4 uM NADPH
Experimental: Assays were conducted in a volume of 76 ul assay buffer (150 mM NaCl, 10 mM MgCl2, 20 mM Tris pH 7.5, 0.03% bovine serum albumin) as follows in a standard 384-well plate: To 25 ul of substrate mix (8 uM NADPH, 2 mM αKG), 1 ul of test compound was added in DMSO. […] The reaction was incubated for 50 minutes at room temperature, then 25 ul of detection mix (30 uM resazurin, […]) was added and the mixture further incubated for 5 minutes at room temperature. The conversion of resazurin to resorufin was detected by fluorescent spectroscopy at Ex544 Em590 c/o 590.
(§4) The selectivity between wild type vs mutant could be >20-fold.

LDHa = LDHa (Homo sapiens, UniProt P00338); test: LDHa IC50 (Table 24a); assay type: biochemical
LDHb = LDHb (Homo sapiens, UniProt P07195); test: LDHb IC50 (Table 24a); assay type: biochemical
LDHb, sequence (P07195 whole entry, species assumed): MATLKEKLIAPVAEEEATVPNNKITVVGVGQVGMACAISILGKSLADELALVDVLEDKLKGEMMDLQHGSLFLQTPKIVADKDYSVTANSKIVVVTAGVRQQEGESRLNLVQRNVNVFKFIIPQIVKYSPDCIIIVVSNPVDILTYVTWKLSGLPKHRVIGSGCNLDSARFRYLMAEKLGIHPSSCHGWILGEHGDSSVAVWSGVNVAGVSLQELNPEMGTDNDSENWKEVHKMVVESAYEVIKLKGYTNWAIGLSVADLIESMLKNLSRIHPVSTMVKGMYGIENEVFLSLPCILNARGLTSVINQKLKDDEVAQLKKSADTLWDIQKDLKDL

IDH1 wt = molecular target: T4, IDH1 wt (Homo sapiens, UniProt O75874); test: IDH1 wt assay (wild type vs mutant selectivity); assay type: biochemical
T4 construct: The resultant fragments for IDH1 (full length) and IDH2 (residues 40-452) were cloned into vector pET41a; made in house; host or cells: E. coli
T4 sequence (O75874 whole entry, the tested form may be a part): as the sequence (O75874 whole entry R132S, the tested form may be a part) above, with S132R counted along it
Source text: as §4

[3] = Reduction of alpha-ketoglutarate with NADH by IDH1 wild-type and mutants; assay type: biochemical, human
Experimental: In order to evaluate the ability of the mutant enzymes to utilize NADH in the reduction of alpha-ketoglutarate, the following experiment was conducted.

[4] = Enzyme kinetics of IDH1 wild-type and mutants in oxidative decarboxylation of isocitrate to α-KG; assay type: biochemical, human
Experimental: as §1
All data was fit to the Hill equation by least-squares regression analysis.

[5] = Enzyme kinetics of IDH1 wild-type and mutants in reduction of α-KG with NADPH; assay type: biochemical, human; settings: for consumption of NADPH in reduction of α-KG: 40 ug/ml of enzyme
Experimental: In these reactions, substrate was varied while the cofactor was held constant at 500 uM. All reactions were performed in 50 mM potassium phosphate buffer, pH 6.5, 10% glycerol, 0.03% (w/v) BSA, 5 mM MgCl2, and 40 mM sodium hydrocarbonate. Reaction progress was followed by spectroscopy at 340 nM monitoring the change in oxidation state of the cofactor. Sufficient enzyme was added to give a linear change in absorbance for 10 minutes.

[6] = IDH1/2 activity assay, forward reaction (isocitrate and NADP+); assay type: biochemical, human; settings: Oxidative (→NADPH), recombinant IDH1; for pKi: inhibition by aKG; for Km: read-out: KM,isocitrate
Experimental: (§5) All reactions were performed in standard enzyme reaction buffer (150 mM NaCl, 20 mM Tris-Cl, pH 7.5, 10 mM MgCl2 and 0.03% (w/v) bovine serum albumin). For determination of kinetic parameters, sufficient enzyme was added to give a linear reaction for 1 to 5 seconds. Enzymatic binding constants were determined using curve fitting algorithms to standard kinetic models with the Sigmaplot software package (Systat Software, San Jose, Calif.). For determination of kcat, enzyme was incubated with 5×Km of substrate and cofactor; consumption of NADPH or NADP was determined by a change in the OD340 over time. In both cases an extinction coefficient of 6200 M^−1 cm^−1 was used for NADPH.

[7] = IDH1/2 activity assay, reverse reaction (α-KG and NADPH); assay type: biochemical, human; settings: reductive (→NADP^+)
Experimental: as §5

[8] = Recombinant IDH1 enzyme assays (stopped-flow, 340 nm); assay type: biochemical, human; settings: NADP+-dependent oxidative decarboxylation of isocitrate, vs wild-type
Experimental: 293T and the human glioblastoma cell lines U87MG and LN-18 were cultured in DMEM, 10% fetal bovine serum. Cells were transfected and selected using standard techniques. Protein expression levels were determined by Western blot analysis using IDHc antibody (Santa Cruz Biotechnology), IDH1 antibody (proteintech), MYC tag antibody (Cell Signaling Technology), and IDH2 antibody (Abcam). Metabolites were extracted from cultured cells and from tissue samples according to close variants of a previously reported method (Lu, W., Kimball, E. & Rabinowitz, J. D. J Am Soc Mass Spectrom 17, 37-50 (2006)), using 80% aqueous methanol (−80° C.) and either tissue scraping or homogenization to disrupt cells. […] For enzyme assays using recombinant IDH1 enzyme, proteins were produced in E. coli and purified using Ni affinity chromatography followed by Sephacryl S-200 size-exclusion chromatography. […] Chirality of 2HG was determined as described previously (Struys, E. A., Jansen, E. E., Verhoeven, N. M. & Jakobs, C. Clin Chem 50, 1391-5 (2004)). […] The IDH1 mutation status of each sample was determined using standard molecular biology techniques as described previously (Yan, H. et al. N Engl J Med 360, 765-73 (2009)). Metabolites were extracted and analyzed by LC-MS/MS as described above. […]

[9] = NADH 0.5 mM, alpha-Ketoglutarate 5 mM

O=C(O)CCC(=O)C(=O)O [α-KG, α-ketoglutarate]
pKi (IDH1 R132S): 4.34 | pKi (IDH1 R132H [1]): 4.54 | pKi (IDH1 wild-type): 3.21

O=C(O)CC[C@@H](O)C(=O)O [(R)-2-hydroxyglutarate]
effect on the oxidative decarboxylation of isocitrate by wild-type ICDH1 (IDH1 wild-type): did not show any effect

Cn1nnc2c(C(N)=O)ncn2c1=O [temozolomide]
tolerability (glioblastoma multiforme): well tolerated

O=C1NC(=S)S/C1=C\c1cccc(OC(=O)c2cccc(F)c2)c1
IC50 Ratio (40/4) (IDH1 R132H [2]): 1.15 | pIC50 (LDHa): 5.06 | pIC50 (LDHb): < 4.00

Cc1ccc(C2=NN(c3ccccc3)C(c3cn(CCC(=O)O)nc3-c3ccccc3)C2)cc1 (stereo not shown) [second example]
inhibition of IDH1 wt (IDH1 wt; even at 100 uM, 1× Km of NADPH): no inhibition

R132S: recombinant IDH1 Arg132Ser mutant with C-terminal His8 tag expressed in E. coli
consumption of NADH in the presence of alpha-ketoglutarate [3, 9]: demonstrated the ability to utilize NADH | Umol/min/mg ([3]; consumption of NADH, individual determinations): 0.7183 Umol/min/mg and 0.6997 Umol/min/mg | Rate (ΔA/sec) ([3]; consumption of NADH, individual determinations, NADH 0.5 mM, alpha-Ketoglutarate 5 mM): 0.001117 ΔA/sec and 0.001088 ΔA/sec | Rate (ΔA/sec) Mean ([3]; consumption of NADH, mean): 0.001103 ΔA/sec | Umol/min/mg Mean ([3]; consumption of NADH, mean): 0.709 Umol/min/mg | increase in Km ([4]; Km for isocitrate compared to wild-type): 20,000 fold | Vmax ([4]; isocitrate varied, cofactor 500 uM): 95 µmol/min/mg | Hill Constant ([4]; isocitrate, fit to Hill equation): 0.479 | consumption of NADPH in reduction of α-KG [5]: reduced α-KG and consumed NADPH | pKi ([5]; uncompetitive substrate inhibition by α-KG): 1.61 | Hill Constant ([5]; α-KG): 0.479 | Vmax ([5]; α-KG varied, NADPH 500 uM, pH 6.5): 2.7 µmol/min/mg

O=C(O)C(=O)C(C(=O)O)C(O)C(=O)O (stereo not shown) [Oxalomalate, oxalomalate]
pKi (IDH1 R132S; IDH1R132S 30 ug/ml, competitive with isocitrate, NADP 0.5 mM, read-out: Oxalomalate Ki): 3.29 | susceptibility to inhibition by oxalomalate (IDH1 R132S; R132S mutation compared with wt): approximately a two-fold increase in susceptibility | pKi (IDH1 R132H [1]; IDH1R132H 60 ug/ml, competitive with isocitrate, NADP 0.5 mM, read-out: Oxalomalate Ki): 3.02 | susceptibility to inhibition by oxalomalate (IDH1 R132H [1]; R132H mutation compared with wt): essentially unaffected | pKi (IDH1 wild-type; IDH1 wt 1.5 ug/ml, competitive with isocitrate, NADP 0.5 mM, read-out: Oxalomalate Ki): 3.02

Cc1cc(C(=O)O)ccc1-c1ccc(/C=C2/NC(=O)N(Cc3ccc(Br)cc3)C2=O)o1
IC50 Ratio (40/4) (IDH1 R132H [2]): 1.28 | pIC50 (LDHa): 4.47 | pIC50 (LDHb): < 4.00

Cc1ccc(C2=NN(c3ccccc3)C(c3cn(CCC(=O)O)nc3-c3ccccc3)C2)cc1 (stereo not shown) [drawing 31]
IC50 Ratio (40/4) (IDH1 R132H [2]): 3.38 | IDH1wt IC50 @ 1x Km (uM) (IDH1 wt; 1x Km of NADPH): NO inhibition | pIC50 (LDHa): 5.23 | pIC50 (LDHb): 4.76

Wt: recombinant wild type IDH1 with C-terminal His8 tag expressed in E. coli
pKi [6]: 3.21 | kcat [6]: 130000 s⁻¹ | Km [6]: 57 µM | consumption of NADH in the presence of alpha-ketoglutarate [3, 9]: no measurable consumption of NADH | kcat(s^−1) ([7]; WT value estimated (est.)): ~7 (est.) s^−1 | consumption of NADPH in reduction of α-KG [5]: unable to consume NADPH

Cc1c(C=C2Sc3ccccc3C2=O)c(O)n2c(nc3ccccc32)c1C#N [first example]
IC50 when assayed at 100×Km (IDH1 R132H [2]; IDH1R132H at 100× Km of NADPH): shifted significantly | pIC50 (IDH1 R132H [2]; IDH1R132H, presumably at 10× Km of NADPH): 5.24

R132H: recombinant IDH1 Arg132His mutant with C-terminal His8 tag expressed in E. coli
consumption of NADH in the presence of alpha-ketoglutarate [3, 9]: no measurable consumption of NADH | decrease in catalytic turnover [8]: 1000 fold

O=C(O)CCC(O)C(=O)O (stereo not shown) [reaction product 2-HG, 2-hydroxyglutarate]
effect on the oxidative decarboxylation of isocitrate by wild-type ICDH1 (IDH1 wild-type): inhibit

O=C1NC(=S)S/C1=C/c1cccc(OCc2ccc([N+](=O)[O-])cc2)c1
IC50 Ratio (40/4) (IDH1 R132H [2]): 1.39 | pIC50 (LDHa): 4.89 | pIC50 (LDHb): < 4.00

Cc1c(/C=C2\Sc3ccccc3C2=O)c(O)n2c(nc3ccccc32)c1C#N
IC50 Ratio (40/4) (IDH1 R132H [2]): 17.42 | pIC50 (LDHa): 4.59 | pIC50 (LDHb): 4.19

R132C
pKi [6]: 4.21 | kcat [6]: 710 s⁻¹ | Km [6]: 87000 µM | kcat ([7]; WT value estimated (est.)): 550 s⁻¹ | Km ([7]; n/a indicates no measureable activity): 0.3 µM
